Data as given in ChEMBL document CHEMBL1150027, “Apigenin-7-O--D-glucopyranoside, an anti-HIV principle from Kummerowia striata” (Bioorg Med Chem Lett, 1994).
Values after ≈ are worked out from the molar mass of the structure shown.

Columns and labels:
[1] = Ratio of IC50 to EC50 was expressed as therapeutic index; settings: read-out: TI
[2] = test system: H9; assay: Inhibitory activity against HIV-1 IIIB replication in H9 cell line; format: functional, cell-based; settings: Homo sapiens
[3] = test system: H9; assay: Inhibitory activity against H9 cells uninfected with HIV-1; format: functional, cell-based; settings: Homo sapiens

Compound	selectivity ratio [1]	EC50 [2] [µg/mL]	IC50 [3] [µg/mL]
O=c1cc(-c2ccc(O)cc2)oc2cc(O[C@@H]3O[C@H](CO)[C@@H](O)[C@H](O)[C@H]3O)cc(O)c12 [APIGETRIN]	> 55.6	1.8 (≈ 4.16 µM)	> 100
O=c1cc(-c2ccc(O)cc2)oc2cc(O)cc(O)c12 [APIGENIN]	4	9 (≈ 33.3 µM)	35 (≈ 130 µM)
O=c1c(O[C@@H]2O[C@H](CO)[C@@H](O)[C@H](O)[C@H]2O)c(-c2ccc(O)cc2)oc2cc(O)cc(O)c12 [ASTRAGALIN]	< 1.25	80 (≈ 178 µM)	< 100
O=c1c(O)c(-c2ccc(O)c(O)c2)oc2cc(O)cc(O)c12 [QUERCETIN]	< 2.5	1.6 (≈ 5.29 µM)	< 4
